Data reported in patent US10344049B2, “Substituted steroids for the treatment of cancer” (AQUAVAN TECHNOLOGY CO., LTD., priority 2017, dated 2019).
Read-outs that look alike come from different tables or passages of the source.

What was measured:
Format in all cases: cell-based
[1] = test system: human Glioblastoma cells U87-MG; assay: Cell viability test (Resazurin), U87-MG cells
Experimental: (§1) Cell viability was determined with Resazurin (at a final concentration of 25 μg/mL).

[2] = test system: human breast cancer cells MDA-MB-468; assay: Cell viability test (Resazurin), MDA-MB-468 cells
Experimental: as §1

[3] = test system: human breast cancer cells MDA-MB-231; assay: Cell viability test (Resazurin), MDA-MB-231 cells
Experimental: as §1

[4] = test system: human liver cancer cells Mahlavu; assay: Cell viability test (Resazurin), Mahlavu cells
Experimental: as §1

[5] = test system: human leukemia cells U937; assay: Cell viability test (Resazurin), U937 cells
Experimental: as §1

[6] = test system: human colorectal cancer cells SW-480; assay: Cell viability test (Resazurin), SW480 cells
Experimental: as §1

[7] = test system: African green monkey kidney cells Vero; assay: Cell viability test (Resazurin), Vero cells
Experimental: as §1

[8] = test system: human lung cancer cells A549; assay: Cell viability test (Resazurin), A549 cells
Experimental: as §1

[9] = Homo sapiens, U-87 MG, 48 h, 0.1% FCS, Resazurin, read-out: inhibitory concentrations of cell growth activity IC50
[10] = Homo sapiens, U-87 MG, grade of the IC50 of Table 2, read-out: evaluation of ability to inhibit cell growth activity (IC50)
[11] = MDA-MB-468 cells, 48 hours, 0.1% FCS, Resazurin, read-out: inhibitory concentrations of cell growth activity IC50
[12] = MDA-MB-468 cells, grade of the IC50 of Table 2, read-out: evaluation of ability to inhibit cell growth activity (IC50)
[13] = Homo sapiens, MDA-MB-231, 48 h, MDA-MB-231 cells, 48 hours, 0.1% FCS, Resazurin, read-out: inhibitory concentrations of cell growth activity IC50
[14] = Homo sapiens, MDA-MB-231, MDA-MB-231 cells, grade of the IC50 of Table 2, read-out: evaluation of ability to inhibit cell growth activity (IC50)
[15] = Homo sapiens, Mahlavu, 48 h, 0.1% FCS, Resazurin, read-out: inhibitory concentrations of cell growth activity IC50
[16] = Homo sapiens, Mahlavu, grade of the IC50 of Table 2, read-out: evaluation of ability to inhibit cell growth activity (IC50)
[17] = Homo sapiens, U-937, U937 cells, grade of the IC50 of Table 2, read-out: evaluation of ability to inhibit cell growth activity (IC50)
[18] = U937 cells, 48 hours, 0.1% FCS, Resazurin, read-out: inhibitory concentrations of cell growth activity IC50
[19] = Homo sapiens, SW480, 48 h, SW480 cells, 48 hours, 0.1% FCS, Resazurin, read-out: inhibitory concentrations of cell growth activity IC50
[20] = Homo sapiens, SW480, SW480 cells, grade of the IC50 of Table 2, read-out: evaluation of ability to inhibit cell growth activity (IC50)
[21] = Chlorocebus sabaeus, Vero, 48 h, 0.1% FCS, Resazurin, read-out: inhibitory concentrations of cell growth activity IC50
[22] = Chlorocebus sabaeus, Vero, grade of the IC50 of Table 2, read-out: evaluation of ability to inhibit cell growth activity (IC50)
[23] = Homo sapiens, A549, 48 h, A549 cells, 48 hours, 0.1% FCS, Resazurin, read-out: inhibitory concentrations of cell growth activity IC50
[24] = Homo sapiens, A549, A549 cells, grade of the IC50 of Table 2, read-out: evaluation of ability to inhibit cell growth activity (IC50)
[25] = U937 cells, grade of the IC50 of Table 2, read-out: evaluation of ability to inhibit cell growth activity (IC50)
[26] = 48 hours, 0.1% FCS, Resazurin, read-out: inhibitory concentrations of cell growth activity IC50
[27] = grade of the IC50 of Table 2, read-out: evaluation of ability to inhibit cell growth activity (IC50)
[28] = MDA-MB-231 cells, 48 hours, 0.1% FCS, Resazurin, read-out: inhibitory concentrations of cell growth activity IC50
[29] = MDA-MB-231 cells, grade of the IC50 of Table 2, read-out: evaluation of ability to inhibit cell growth activity (IC50)
[30] = U937 cells, grade of the IC50 of Table 2
[31] = SW480 cells, 48 hours, 0.1% FCS, Resazurin, read-out: inhibitory concentrations of cell growth activity IC50
[32] = SW480 cells, grade of the IC50 of Table 2, read-out: evaluation of ability to inhibit cell growth activity (IC50)
[33] = A549 cells, 48 hours, 0.1% FCS, Resazurin, read-out: inhibitory concentrations of cell growth activity IC50
[34] = A549 cells, grade of the IC50 of Table 2, read-out: evaluation of ability to inhibit cell growth activity (IC50)

Row | Structure (SMILES) | IC50 [1, 9] [µM] | IC50 [1, 10] [µM] | IC50 [2, 11] [µM] | IC50 [2, 12] [µM] | IC50 [3, 13] [µM] | IC50 [3, 14] [µM] | IC50 [4, 15] [µM] | IC50 [4, 16] [µM] | IC50 [5, 17] [µM] | IC50 [5, 18] [µM] | IC50 [6, 19] [µM] | IC50 [7, 22] [µM] | IC50 [8, 24] [µM] | IC50 [1, 26] [µM] | IC50 [1, 27] [µM] | IC50 [3, 28] [µM] | IC50 [3, 29] [µM] | IC50 [6, 32] [µM] | IC50 [7, 26] [µM] | IC50 [8, 33] [µM] | also measured
1 | CO[C@@H]1O[C@]23C=C[C@@H]4[C@@]1(CC[C@]1(C)[C@@H]([C@H](C)C/C=C/C(C)(C)OC)CC[C@@]41C)[C@@H]2CC[C@H](O)C3(C)C [Compound 15] | > 256 | > 256 | > 256 | > 256 | > 256 | > 256 | > 256 | > 256 | < 8 | 4.28 | > 256 | > 256 | > 256 | – | – | – | – | – | – | – | IC50 [6, 20]: > 256 µM; IC50 [7, 21]: > 256 µM; IC50 [8, 23]: > 256 µM
2 | COC1O[C@]23C=C[C@@H]4[C@@]1(CC[C@]1(C)[C@@H]([C@H](C)C[C@H](C=C(C)C)OC)CC[C@@]41C)[C@@H]2CC[C@H](O)C3(C)C (stereo partly drawn) [Compound 16] | > 256 | > 256 | – | – | > 256 | > 256 | > 256 | > 256 | – | 97.9 | > 256 | > 256 | > 256 | – | – | – | – | – | – | – | IC50 ([2]; Homo sapiens, MDA-MB-468, 48 h, MDA-MB-468 cells, 48 hours, 0.1% FCS, Resazurin, read-out: inhibitory concentrations of cell growth activity IC50): > 256 µM; IC50 ([2]; Homo sapiens, MDA-MB-468, MDA-MB-468 cells, grade of the IC50 of Table 2, read-out: evaluation of ability to inhibit cell growth activity (IC50)): > 256 µM; IC50 [5, 25]: 64 to 256 µM; IC50 [6, 20]: > 256 µM; IC50 [7, 21]: > 256 µM; IC50 [8, 23]: > 256 µM
3 | COC1O[C@]23C=C[C@@H]4[C@@]1(CC[C@]1(C)[C@@H]([C@H](C)C/C=C/C(C)(C)OC)CC[C@@]41C)[C@@H]2CC[C@H](O)C3(C)C (stereo partly drawn) [Compound 17] | – | – | 9.4 | – | – | – | – | – | – | 12.2 | – | – | – | > 256 | > 256 | > 256 | > 256 | > 256 | > 256 | > 256 | evaluation of ability to inhibit cell growth activity (IC50) ([2]; MDA-MB-468 cells, grade of the IC50 of Table 2): ◯; IC50 [4, 26]: > 256 µM; IC50 [4, 27]: > 256 µM; evaluation of ability to inhibit cell growth activity (IC50) [5, 30]: ◯; IC50 [6, 31]: > 256 µM; IC50 [7, 27]: > 256 µM; IC50 [8, 34]: > 256 µM
4 | CO[C@H]1O[C@]23C=C[C@@H]4[C@@]1(CC[C@]1(C)[C@@H]([C@H](C)C[C@H](C=C(C)C)OC)CC[C@@]41C)[C@@H]2CC[C@H](O)C3(C)C [Compound 18] | – | – | > 256 | > 256 | – | – | – | – | – | > 256 | – | – | – | > 256 | > 256 | > 256 | > 256 | > 256 | > 256 | > 256 | IC50 [4, 26]: > 256 µM; IC50 [4, 27]: > 256 µM; IC50 [5, 25]: > 256 µM; IC50 [6, 31]: > 256 µM; IC50 [7, 27]: > 256 µM; IC50 [8, 34]: > 256 µM
5 | COC1O[C@]23C=C[C@@H]4[C@@]1(CC[C@]1(C)[C@@H]([C@H](C)C/C=C/C(C)(C)O)CC[C@@]41C)[C@@H]2CC[C@H](O)C3(C)C (stereo partly drawn) [Compound 19] | – | – | 24.4 | 16 to 64 | – | – | 20.7 | 16 to 64 | 8 to 16 | 11.9 | 16.6 | 16 to 64 | 16 to 64 | 25 | 16 to 64 | 22.6 | 16 to 64 | 16 to 64 | 36.1 | 45.6 | evaluation of ability to inhibit cell growth activity (IC50) [5, 30]: ◯
